Data as given in patent US10781224B2, “Bis(oxymethyl)phosphinic acid and biogenic metal salts thereof as regulators of plant growth and development” (priority 2016, dated 2020).

Tested on: winter wheat (Vershin variety)
Experiment: Winter wheat seed treatment with BHMPA salts: germinating power (length and mass of roots and sprouts)
Format: in vivo
Outline: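 Seeds (50 per Petri dish on two layers of filter paper) soaked 1 h in BHMPA or its Ca, Mg, Na, Co, Mn, Cu or Zn salts at 1·10^−6-1·10^−12%, with water controls. Germination energy read on day 4, germination on day 8 (wheat) or day 7 (rice, corn), as % means of four replicates. Germinating power taken as root and sprout length plus wet and dry mass per 100 seedlings.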

[1] = comparative study, 1·10^−9% solution

Compound: O=P([O-])(CO)CO.[Na+] [Na-salt, Sodium BHMPA Salt]
- effectiveness on germinating power (1·10^−6% and 1·10^−12% solutions): marginally effective
- Length, root (1·10^−6% solution): 5.0 cm
- Length, root, + % to control (1·10^−6% solution): −5.7%
- Length, sprout (1·10^−6% solution): 6.0 cm
- Length, sprout, + % to control (1·10^−6% solution): −1.6%
- Mass, dry, root (1·10^−6% solution): 0.37 g/100 plantlings
- Mass, dry, root, + % to control (1·10^−6% solution): −10%
- Mass, dry, sprout (1·10^−6% solution): 0.54 g/100 plantlings
- Mass, dry, sprout, + % to control (1·10^−6% solution): −3.6%
- Mass, wet, root (1·10^−6% solution): 2.35 g/100 plantlings
- Mass, wet, root, + % to control (1·10^−6% solution): −3.7%
- Mass, wet, sprout (1·10^−6% solution): 4.51 g/100 plantlings
- Mass, wet, sprout, + % to control (1·10^−6% solution): −3.6%
- Length, root (1·10^−7% solution): 5.3 cm
- Length, root, + % to control (1·10^−7% solution): 0%
- Length, sprout (1·10^−7% solution): 6.3 cm
- Length, sprout, + % to control (1·10^−7% solution): 3.3%
- Mass, dry, root (1·10^−7% solution): 0.45 g/100 plantlings
- Mass, dry, root, + % to control (1·10^−7% solution): 10%
- Mass, dry, sprout (1·10^−7% solution): 0.56 g/100 plantlings
- Mass, dry, sprout, + % to control (1·10^−7% solution): 0%
- Mass, wet, root (1·10^−7% solution): 2.58 g/100 plantlings
- Mass, wet, root, + % to control (1·10^−7% solution): 5.7%
- Mass, wet, sprout (1·10^−7% solution): 5.03 g/100 plantlings
- Mass, wet, sprout, + % to control (1·10^−7% solution): 7.5%
- Length, root (1·10^−8% solution): 5.6 cm
- Length, root, + % to control (1·10^−8% solution): 5.7%
- Length, sprout (1·10^−8% solution): 6.7 cm
- Length, sprout, + % to control (1·10^−8% solution): 10%
- Mass, dry, root (1·10^−8% solution): 0.47 g/100 plantlings
- Mass, dry, root, + % to control (1·10^−8% solution): 14.6%
- Mass, dry, sprout (1·10^−8% solution): 0.63 g/100 plantlings
- Mass, dry, sprout, + % to control (1·10^−8% solution): 12.5%
- Mass, wet, root (1·10^−8% solution): 2.73 g/100 plantlings
- Mass, wet, root, + % to control (1·10^−8% solution): 12%
- Mass, wet, sprout (1·10^−8% solution): 5.37 g/100 plantlings
- Mass, wet, sprout, + % to control (1·10^−8% solution): 15%
- Length, root (1·10^−9% solution): 5.7 cm
- Length, root, + % to control (1·10^−9% solution): 7.5%
- Length, sprout (1·10^−9% solution): 6.9 cm
- Length, sprout, + % to control (1·10^−9% solution): 13%
- Mass, dry, root (1·10^−9% solution): 0.56 g/100 plantlings
- Mass, dry, root, + % to control (1·10^−9% solution): 36.5%
- Mass, dry, sprout (1·10^−9% solution): 0.69 g/100 plantlings
- Mass, dry, sprout, + % to control (1·10^−9% solution): 23%
- Mass, wet, root (1·10^−9% solution): 3.21 g/100 plantlings
- Mass, wet, root, + % to control (1·10^−9% solution): 31.5%
- Mass, wet, sprout (1·10^−9% solution): 5.41 g/100 plantlings
- Mass, wet, sprout, + % to control (1·10^−9% solution): 15.6%
- Length, root (1·10^−10% solution): 5.6 cm
- Length, root, + % to control (1·10^−10% solution): 5.7%
- Length, sprout (1·10^−10% solution): 6.5 cm
- Length, sprout, + % to control (1·10^−10% solution): 6.5%
- Mass, dry, root (1·10^−10% solution): 0.46 g/100 plantlings
- Mass, dry, root, + % to control (1·10^−10% solution): 12%
- Mass, dry, sprout (1·10^−10% solution): 0.61 g/100 plantlings
- Mass, dry, sprout, + % to control (1·10^−10% solution): 9%
- Mass, wet, root (1·10^−10% solution): 2.66 g/100 plantlings
- Mass, wet, root, + % to control (1·10^−10% solution): 9%
- Mass, wet, sprout (1·10^−10% solution): 5.33 g/100 plantlings
- Mass, wet, sprout, + % to control (1·10^−10% solution): 14%
- Length, root (1·10^−11% solution): 5.5 cm
- Length, root, + % to control (1·10^−11% solution): 3.8%
- Length, sprout (1·10^−11% solution): 6.4 cm
- Length, sprout, + % to control (1·10^−11% solution): 5%
- Mass, dry, root (1·10^−11% solution): 0.43 g/100 plantlings
- Mass, dry, root, + % to control (1·10^−11% solution): 5%
- Mass, dry, sprout (1·10^−11% solution): 0.60 g/100 plantlings
- Mass, dry, sprout, + % to control (1·10^−11% solution): 7%
- Mass, wet, root (1·10^−11% solution): 2.57 g/100 plantlings
- Mass, wet, root, + % to control (1·10^−11% solution): 5.3%
- Mass, wet, sprout (1·10^−11% solution): 5.11 g/100 plantlings
- Mass, wet, sprout, + % to control (1·10^−11% solution): 9%
- Length, root (1·10^−12% solution): 5.4 cm
- Length, root, + % to control (1·10^−12% solution): 2%
- Length, sprout (1·10^−12% solution): 6.3 cm
- Length, sprout, + % to control (1·10^−12% solution): 3.3%
- Mass, dry, root (1·10^−12% solution): 0.42 g/100 plantlings
- Mass, dry, root, + % to control (1·10^−12% solution): 2%
- Mass, dry, sprout (1·10^−12% solution): 0.58 g/100 plantlings
- Mass, dry, sprout, + % to control (1·10^−12% solution): 3.6%
- Mass, wet, root (1·10^−12% solution): 2.41 g/100 plantlings
- Mass, wet, root, + % to control (1·10^−12% solution): −1.2%
- Mass, wet, sprout (1·10^−12% solution): 5.03 g/100 plantlings
- Mass, wet, sprout, + % to control (1·10^−12% solution): 7.5%
- Length, root [1]: 8.7 cm
- Length, root, + % to control [1]: 0%
- Length, sprout [1]: 6.4 cm
- Length, sprout, + % to control [1]: 3%
- Mass, dry, root [1]: 0.64 g/100 plantlings
- Mass, dry, root, + % to control [1]: 3%
- Mass, dry, sprout [1]: 0.53 g/100 plantlings
- Mass, dry, sprout, + % to control [1]: 4%
- Mass, wet, root [1]: 4.19 g/100 plantlings
- Mass, wet, root, + % to control [1]: 16%
- Mass, wet, sprout [1]: 4.73 g/100 plantlings
- Mass, wet, sprout, + % to control [1]: 19%
